In patent US12016834B2, “Small molecule inhibitors of SLC25A1” (GEORGETOWN UNIVERSITY, priority 2017, dated 2024):

Key:
[1] = system: H1299 cells; experiment: Sphere forming / self-renewal assay; format: cell-based, human; settings: one week after treatment; BTA 2 mM, CTPI 1 mM (FIG. 9F)
Description: Growth of monolayers and sphere cultures. Tumor cell lines were grown as monolayers in complete Dulbecco's Modified Eagle's Media (DMEM, Gibco; supplemented with 10% fetal bovine serum and 1% of 5,000 units/mL of penicillin-streptomycin (pen-strep), Gibco). To generate spheroids, cells were grown in Falcon bacteriological petri dishes coated with 2% poly(2-hydroxyethyl methacrylate) dissolved in 100% ethanol. The growth media was DMEM/F12 (Gibco) supplemented with 20 ng/mL of epidermal growth factor (EGF), 5 ng/mL of fibroblast growth factor, 0.375% 100× N2 supplements (Gibco), and 1% pen-strep. Monolayer cells were dissociated using 0.25% trypsin-edta (Gibco), whereas spheroid cultures were dissociated using StemPro Accutase (Gibco). Patient derived cell lines were grown as described below in the primary lung cultures section.
Self-renewal assays. Tumor cells cultured as spheroids were dissociated and diluted in 2× sphere media containing 1% methyl cellulose, which was previously dissolved in cold DMEM/F12 media. Either 200, 500, or 1000 cells were then plated in each 96 well and were incubated in the presence or absence of drugs, as indicated. The spheres were allowed to form for a period of a week to ten days, at which point they were counted. Six biological replicates were used for quantification of the results.

[2] = molecular target: SLC25A1 (Homo sapiens, UniProt P53007); settings: cited from earlier work
Chain of SLC25A1 (P53007 14-311, species assumed): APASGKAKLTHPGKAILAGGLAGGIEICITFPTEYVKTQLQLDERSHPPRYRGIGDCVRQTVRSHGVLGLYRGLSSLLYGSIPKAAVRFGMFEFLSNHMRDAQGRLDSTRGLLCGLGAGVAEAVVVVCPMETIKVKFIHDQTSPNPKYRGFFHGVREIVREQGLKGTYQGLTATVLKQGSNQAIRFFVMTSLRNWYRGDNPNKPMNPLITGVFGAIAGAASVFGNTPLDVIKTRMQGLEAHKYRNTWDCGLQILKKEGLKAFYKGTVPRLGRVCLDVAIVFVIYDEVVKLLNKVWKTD

For `O=C(O)c1cccc(C(=O)O)c1C(=O)O` [BTA, 1,2,3, Benzenetricarboxylic acid], the sphere forming capacity [1] is listed as “reduced sphere forming capacity” and the “concentration required for inhibition of SLC25A1” value [2] is listed as “millimolar concentration”.
